Source: patent publication US20240109893A1, “PREPARATION AND APPLICATION METHOD OF HETEROCYCLIC COMPOUNDS AS KRAS INHIBITOR” (SHANGHAI KECHOW PHARMA, INC., priority 2020, published 2024)

Test system: H358 cells
Test: Cell activity experiment: activity test of H358 cells (MTT, 5 days)
Format: cell-based
Details: 5 days incubation, absorbance 492 nm
Method: Example: Cell Activity Experiment
1. Cells: H358 purchased from Shanghai EK-Bioscience Biotechnology Co., Ltd.
2. Reagents: RPMI 1640 medium, Tryple, MTT (5 mg/mL), DMSO, and DPBS.
3. Instruments: an incubator at 37° C. and 5% CO2, a UTRAO microplate reader, a biosafety cabinet, a cell counting plate, and an Optec optical microscope.
4. Experimental consumables: 96-well plate Item No.: 3599, and 96-well round-bottomed dispensing plate.
Experimental Steps of Activity Test of H358 Cells:
1. Plating: Cells in the logarithmic growth phase were digested with Tryple and terminated with a fresh medium, and the cells were counted; and the cell concentration was adjusted to 55555 cells/mL with a fresh medium, wherein 90 μL was added to each well, and those on edges were filled with sterile DPBS.
2. The plate was incubated in the incubator at 37° C. and 5% CO2 for 24 h, so that the cells cover the bottom of the well by about 50%.
3. Drug preparation for experimental group: The drug was dissolved in DMSO to prepare a 20 mmol/L stock solution; the stock solution was further diluted with DMSO to 2 mmol/L, which was serially 3-fold diluted to form an […]-concentration gradient, resulting in a 200× serial compound solution; 10 μL of the serial compound solution was taken and added to 190 μLμL of RPMI1640 medium to obtain a 10× serial compound solution; and 10 μL of the 10× compound solution was taken and added to 90 μL 96-well cell culture plate, with three replicates per grade. The concentration gradient of the compound in the 96-well cell culture plate was […], 1.524158 nM, 4.572474 nM, 13.717420 nM, 41.152260 nM, 123.456800 nM, 370.370400 nM, 1111.111000 nM, 3333.333000 nM, and 10000.000000 nM, with 100 μL per well, and the final concentration of DMSO was 0.5%.
The control group contained the same volume of solvent as the experimental group and was diluted with a complete medium, with 100 μL per well.
4. Incubation was carried out for 5 days in an incubator with 5% CO2 at 37° C.
5. After 5 days, 10 μL of an MTT solution (5 mg/mL) was added to each well, and the culture was continued for 4 h.
6. The culture was terminated, and the culture solution was carefully sucked out of the well.
7. 150 μL of dimethyl sulfoxide (DMSO) was added to each of the null wells in the experimental group and the control group; and after shaking at a medium speed for 10 s, the crystal was fully dissolved, and the optical absorbance value thereof was measured at a wavelength of 492 nm.

Row | SMILES | IC50 (Homo sapiens, NCI-H358, 120 h) | IC50
1 | C=C(F)C(=O)N1CCN(c2nc(OC[C@@H]3CCCN3C)nc3cc(N4CCCc5cccc(Cl)c54)ccc23)C[C@@H]1CC#N [Example 619, 2-((S)-4-(7-(8-chloro-3,4-dihydroquinoline-1(2H)-yl)-2-(((S)-1-methylpyrrolidin-2-yl)methoxy)quinazolin-4-yl)-1-(2-fluoroacryloyl)piperazin-2-yl)acetonitrile] | 496 nM | 
2 | C=C(F)C(=O)N1CCN(c2nc(OC[C@@H]3C[C@@H](F)CN3C)nc3cc(-c4cccc5cccc(Cl)c45)ccc23)C[C@@H]1CC#N [Example 80] | 65 nM | 
3 | C=C(F)C(=O)N1CCN(c2nc(OCC34CCCN3CCC4)nc3cc(-c4cccc5cccc(Cl)c45)ccc23)C[C@@H]1CC#N [Example 82, (S)-2-(4-(7-(8-chloronaphthalen-1-yl)-2-((tetrahydro-1H-pyrrolizin-7a(5H)-yl)methoxy)quinazolin-4-yl)-1-(2-fluoroacryloyl)piperazin-2-yl)acetonitrile] | 12 nM | 
4 | C=CC(=O)N1CCN(c2nc(OC[C@@H]3CCCN3C)nc3c(F)c(-c4cccc5ccsc45)ncc23)C[C@@H]1CC#N [Example 51, 2-((S)-1-acryloyl-4-(7-(benzo[b]thien-7-yl)-8-fluoro-2-(((S)-1-methylpyrrolidin-2-yl)methoxy)pyridino[4,3-d]pyrimidin-4-yl)piperazin-2-yl)acetonitrile] | 148 nM | 
5 | C=CC(=O)N1CCN(c2nc(OC[C@@]34CCCN3C[C@H](F)C4)nc3c(F)c(-c4ccc(F)c5c4CCCC5)ncc23)C[C@@H]1CC#N [Example 23] | 3 nM | 
6 | C=C(F)C(=O)N1CCN(c2nc(OC[C@@H]3CCCN3C)nc3cc(-c4cccc5c4C4CC4C5)ccc23)C[C@@H]1CC#N (stereo partly drawn) [Example 537, 2-((2S)-1-(2-fluoroacryloyl)-4-(2-(((S)-1-methylpyrrolidin-2-yl)methoxy)-7-(1,1a,6,6a-tetrahydrocyclopropa[a]inden-2-yl)quinazolin-4-yl)piperazin-2-yl)acetonitrile] | 150 nM | 
7 | C=CC(=O)N1CCN(c2nc(OC[C@@H]3CCCN3C)nc3cc(-c4cccc5c4CCCC5)ccc23)C[C@@H]1CC#N [Example 110, 2-((S)-1-acryloyl-4-(2-(((S)-1-methylpyrrolidin-2-yl)methoxy)-7-(5,6,7,8-tetrahydronaphthalen-1-yl)quinazolin-4-yl)piperazin-2-yl)acetonitrile] | 35 nM | 
8 | C=C(F)C(=O)N1CCN(c2nc(OCC34CCCN3CCC4)nc3c(F)c(-c4ccc(F)c5c4CCCC5)ncc23)C[C@@H]1CC#N [Example 22] | 20 nM | 
9 | C=C(F)C(=O)N1CC[C@@H]2[C@H]1CN2c1nc(OCC23CCCN2CCC3)nc2c(F)c(-c3cccc4c3CCCC4)ncc12 [Example 14, 2-fluoro-1-((1R,5R)-6-(8-fluoro-2-((tetrahydro-1H-pyrrolizin-7a(5H)-yl)methoxy)-7-(5,6,7,8-tetrahydronaphthalen-1-yl)pyridino[4,3-d]pyrimidin-4-yl)-2,6-diazabicyclo[3.2.0]hept-2-yl)prop-2-en-1-one] | 30 nM | 
10 | C=CC(=O)N1CCN(c2nc(OC[C@@H]3CCCN3C)nc3cc(-c4cccc5c4C4CC4C5)ccc23)C[C@@H]1CC#N (stereo partly drawn) [Example 536] | 30 nM | 
11 | C=C(F)C(=O)N1CCN(c2nc(OC[C@@H]3CCCN3C)nc3cc(-c4cccc5cccc(Cl)c45)ccc23)C[C@@H]1CC#N [Example 78] | 60 nM | 
12 | C=C(F)C(=O)N1CCN(c2nc(OCC34CCCN3CCC4)nc3c(F)c(-c4cncc5c4CCCC5)ncc23)C[C@@H]1CC#N [Example 38, (S)-2-(4-(8-fluoro-2-((tetrahydro-1H-pyrrolizin-7a(5H)-yl)methoxy)-7-(5,6,7,8-tetrahydroisoquinolin-4-yl)pyridino[4,3-d]pyrimidin-4-yl)-1-(2-fluoroacryloyl)piperazin-2-yl)acetonitrile] | 36 nM | 
13 | C=CC(=O)N1CCN(c2nc(OC[C@@H]3C[C@@H](F)CN3C)nc3cc(-c4cccc5c4CCCC5)c(Cl)cc23)C[C@@H]1CC#N [Example 467] | 80 nM | 
14 | C=C(F)C(=O)N1CCN(c2nc(OC[C@@H]3C[C@@H](F)CN3C)nc3cc(-c4cccc5c4CCCC5)ccc23)C[C@@H]1CC#N [Example 113] | 150 nM | 
15 | C=C(F)C(=O)N1CCN(c2nc(OCC3(CN4CCCC4)CC3)nc3c(F)c(-c4cccc5c4C4CC4C5)ncc23)C[C@@H]1CC#N (single isomer, unassigned) [Example 868] |  | 6.6 nM
16 | C=CC(=O)N1CCN(c2nc(OCC34CCCN3CCC4)nc3nc(-c4cccc5cccc(Cl)c45)ccc23)C[C@@H]1CC#N [Example 258, (S)-2-(1-acryloyl-4-(7-(8-chloronaphthalen-1-yl)-2-((tetrahydro-1H-pyrrolizin-7a(5H)-yl)methoxy)pyridino[2,3-d]pyrimidin-4-yl)piperazin-2-yl)acetonitrile] | 15 nM | 
17 | C=CC(=O)N1CCN(c2nc(OCC34CCCN3CCC4)nc3c(F)c(-c4cccc5ccc(F)c(Cl)c45)ccc23)C[C@@H]1CC#N [Example 365, (S)-2-(1-acryloyl-4-(7-(8-chloro-7-fluoronaphthalen-1-yl)-8-fluoro-2-((tetrahydro-1H-pyrrolizin-7a(5H)-yl)methoxy)quinazolin-4-yl)piperazin-2-yl)acetonitrile] | 2 nM | 
18 | C=CC(=O)N1CCN(c2nc(OC[C@@H]3CCCN3C)nc3c(F)c(-c4cncc5cccc(Cl)c45)ccc23)C[C@@H]1CC#N [Example 158, 2-((S)-1-acryloyl-4-(7-(5-chloroisoquinolin-4-yl)-8-fluoro-2-(((S)-1-methylpyrrolidin-2-yl)methoxy)quinazolin-4-yl)piperazin-2-yl)acetonitrile] | 4 nM | 
19 | C=CC(=O)N1CCN(c2nc(OC[C@@H]3CCCN3C)nc3c(F)c(-c4cccc5c4C4CC4C5)ncc23)C[C@@H]1CC#N (stereo partly drawn) [Example 52, 2-((2S)-1-acryloyl-4-(8-fluoro-2-(((S)-1-methylpyrrolidin-2-yl)methoxy)-7-(1,1a,6,6a-tetrahydrocyclopropa[a]inden-2-yl)pyridino[4,3-d]pyrimidin-4-yl)piperazin-2-yl)acetonitrile] | 0.22 nM | 
20 | C=C(F)C(=O)N1CCN(c2nc(OC[C@@H]3CCCN3C)nc3cc(-c4cccc5c4CCCC5)ccc23)C[C@@H]1CC#N [Example 111] | 140 nM | 
21 | C=C(F)C(=O)N1CC[C@@H]2[C@H]1CN2c1nc(OC[C@@H]2C[C@@H](F)CN2C)nc2c(F)c(-c3cccc4c3CCCC4)ncc12 [Example 12] | 80 nM | 
22 | C=CC(=O)N1CCN(c2nc(OCC34CCCN3CCC4)nc3cc(-c4cccc5cccc(Cl)c45)ccc23)C[C@@H]1CC#N [Example 81] | 5.5 nM | 
23 | C=C(F)C(=O)N1CCN(c2nc(OC[C@@]34CCCN3C[C@H](F)C4)nc3nc(-c4cccc5cccc(Cl)c45)ccc23)C[C@@H]1CC#N [Example 261] | 24 nM | 
24 | C=CC(=O)N1CCN(c2nc(OC[C@@H]3C[C@@H](F)CN3C)nc3cc(-c4cccc5cccc(Cl)c45)c(Cl)cc23)C[C@@H]1CC#N [Example 468] | 75 nM | 
25 | C=CC(=O)N1CC[C@@H]2[C@H]1CN2c1nc(OC[C@@H]2CCCN2C)nc2c(F)c(-c3cccc4c3CCCC4)ncc12 [Example 9, 1-((1R,5R)-6-(8-fluoro-2-(((S)-1-methylpyrrolidin-2-yl)methoxy)-7-(5,6,7,8-tetrahydronaphthalen-1-yl)pyridino[4,3-d]pyrimidin-4-yl)-2,6-diazabicyclo[3.2.0]hept-2-yl)prop-2-en-1-one] | 10 nM | 
26 | C=CC(=O)N1CCN(c2nc(OC[C@@H]3CCCN3C)nc3cc(-c4cccc5ccc(F)c(Cl)c45)c(Cl)cc23)C[C@@H]1CC#N [Example 466] | 65 nM | 
27 | C=C(F)C(=O)N1CCN(c2nc(OC[C@@H]3CCCN3C)nc3cc(-c4cncc5c4CCCC5)ccc23)C[C@@H]1CC#N [Example 143] | 80 nM | 
28 | C=C(F)C(=O)N1CCN(c2nc(OC[C@@H]3CCCN3C)nc3c(F)c(-c4cccc5c4CC4CC54)c(O)cc23)C[C@@H]1CC#N (stereo partly drawn) [Example 945] | 155 nM | 
29 | C=C(F)C(=O)N1CCN(c2nc(OCC34CCCN3CCC4)nc3cc(-c4cncc5cccc(Cl)c45)ccc23)C[C@@H]1CC#N [Example 131, (S)-2-(4-(7-(5-chloroisoquinolin-4-yl)-2-((tetrahydro-1H-pyrrolizin-7a(5H)-yl)methoxy)quinazolin-4-yl)-1-(2-fluoroacryloyl)piperazin-2-yl)acetonitrile] | 16 nM | 
30 | C=C(F)C(=O)N1CCN(c2nc(OC[C@@]34CCCN3C[C@H](F)C4)nc3c(F)c(-c4ccc(F)c5c4CCCC5)ncc23)C[C@@H]1CC#N [Example 24] | 15 nM | 
